Where “and” joins values, the source holds several entries; their conditions need not be identical. Equal values may be shown once.
Experiments:
HF-P4 cells = experiment: MTT cytotoxicity assay, HF-P4; assay type: cell-based, human; settings: 48 h; for Cell viability %: repeats
Summary of the method: (§1)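 Cells seeded at 1.0 × 10^5 per well, grown 24 h, then exposed 48 h to compounds at 0.1–20 μM (DMSO ≤1%). MTT added for 2 h, formazan dissolved in DMSO, absorbance read at 570 nm. IC50 calculated relative to untreated cells (100%).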

[1] = MTT cytotoxicity assay, HF-P4; assay type: cell-based, human; settings: human, HF-P4 normal human dermal fibroblasts, repeats, read-out: Cell viability %
Summary of the method: as §1

Caov-3 cells = experiment: MTT cytotoxicity assay, Caov-3; assay type: cell-based, human
Summary of the method: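 Caov-3 ovarian adenocarcinoma cells, grown for 24 h after plating, were exposed for 48 h to compound at 0.1–20 μM with at most 1% DMSO. Viability was measured by MTT reduction (2 h, A570) relative to untreated cells. IC50 was the concentration inhibiting 50% of cell growth.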

BT-20 cells = experiment: MTT cytotoxicity assay, BT-20; assay type: cell-based, human
Summary of the method: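 BT-20 human breast cells seeded 24 h, then treated 48 h with compound at 0.1–20 μM (DMSO below 1%). Viability by MTT (2 h, formazan in DMSO, A570) against untreated cells as 100%; IC50 from four replicates per test, three independent repeats.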

COc1cccc(/C=N/NC(=O)c2ccc(-c3cc4c(cc(-c5ccc(C(=O)N/N=C/c6cccc(OC)c6O)cc5)n4-c4ccc(C)cc4)n3-c3ccc(C)cc3)cc2)c1O [Compound 5]
Cell viability % (HF-P4 cells; HF-P4, 100 nM, 0.1 µM): 105.3072% and 105.0738%
Cell viability % (HF-P4 cells; HF-P4, 500 nM, 0.5 µM): 98.21% and 101.0423%
Cell viability % (HF-P4 cells; HF-P4, 750 nM, 0.75 µM): 95.79% and 102.0649%
Cell viability % (HF-P4 cells; HF-P4, 1 uM, 1 µM): 86.8% and 100.59%
Cell viability % (HF-P4 cells; HF-P4, 2.5 uM, 2.5 µM): 91.7616% and 90.46%
Cell viability % (HF-P4 cells; HF-P4, 5 uM, 5 µM): 65.3% and 72.65%
Cell viability % (HF-P4 cells; HF-P4, 7.5 uM, 7.5 µM): 71.79% and 64.35%
Cell viability % (HF-P4 cells; HF-P4, 10 uM, 10 µM): 58.3808% and 56.93%
Cell viability % (HF-P4 cells; HF-P4, 15 uM, 15 µM): 60.12% and 45.66%
Cell viability % (HF-P4 cells; HF-P4, 20 uM, 20 µM): 55.03% and 53.24%
IC50 (HF-P4 cells; Homo sapiens, MTT): > 20 µM
viability at 48 h, 0.1 µM ([1]; HF-P4, 100 nM): 104%
viability at 48 h, 0.5 µM ([1]; HF-P4, 500 nM): 105%
viability at 48 h, 0.75 µM ([1]; HF-P4, 750 nM): 84.2%
viability at 48 h, 1 µM ([1]; HF-P4, 1 uM): 105%
viability at 48 h, 2.5 µM ([1]; HF-P4, 2.5 uM): 96.8%
viability at 48 h, 5 µM ([1]; HF-P4, 5 uM): 84%
viability at 48 h, 7.5 µM ([1]; HF-P4, 7.5 uM): 74.5%
viability at 48 h, 10 µM ([1]; HF-P4, 10 uM): 76.7%
viability at 48 h, 15 µM ([1]; HF-P4, 15 uM): 63%
viability at 48 h, 20 µM ([1]; HF-P4, 20 uM): 52.2%
melting point: 321 to 322 °C
Cell viability % (Caov-3 cells; Caov-3, 100 nM, 48 h, repeats, 0.1 µM): 124.7159% and 131.0561% and 82.4%
Cell viability % (Caov-3 cells; Caov-3, 500 nM, 48 h, repeats, 0.5 µM): 90.56% and 116.6807% and 137.4211%
Cell viability % (Caov-3 cells; Caov-3, 750 nM, 48 h, repeats, 0.75 µM): 97.72% and 117.0859% and 120.9681%
Cell viability % (Caov-3 cells; Caov-3, 1 uM, 48 h, repeats, 1 µM): 115.5595% and 95.48% and 128.3145%
Cell viability % (Caov-3 cells; Caov-3, 2.5 uM, 48 h, repeats, 2.5 µM): 106.339% and 69.34% and 79.185%
Cell viability % (Caov-3 cells; Caov-3, 5 uM, 48 h, repeats, 5 µM): 81.63% and 70.92%
Cell viability % (Caov-3 cells; Caov-3, 7.5 uM, 48 h, repeats, 7.5 µM): 49.35% and 63.65%
Cell viability % (Caov-3 cells; Caov-3, 10 uM, 48 h, repeats, 10 µM): 41.31% and 47.33%
Cell viability % (Caov-3 cells; Caov-3, 15 uM, 48 h, repeats, 15 µM): 34.22% and 36.44%
Cell viability % (Caov-3 cells; Caov-3, 20 uM, 48 h, repeats, 20 µM): 16.1941% and 14.83%
viability at 5 µM (Caov-3 cells; Homo sapiens, Caov-3, 48 h, Caov-3, 5 uM, repeats, read-out: Cell viability %): 83.6%
viability at 7.5 µM (Caov-3 cells; Homo sapiens, Caov-3, 48 h, Caov-3, 7.5 uM, repeats, read-out: Cell viability %): 62.5%
viability at 10 µM (Caov-3 cells; Homo sapiens, Caov-3, 48 h, Caov-3, 10 uM, repeats, read-out: Cell viability %): 29.5%
viability at 15 µM (Caov-3 cells; Homo sapiens, Caov-3, 48 h, Caov-3, 15 uM, repeats, read-out: Cell viability %): 31.5%
viability at 20 µM (Caov-3 cells; Homo sapiens, Caov-3, 48 h, Caov-3, 20 uM, repeats, read-out: Cell viability %): 17.9%
IC50 (Caov-3 cells; Homo sapiens, Caov-3, MTT, 48 h): 9.48 µM
Cell viability % (BT-20 cells; BT-20, 100 nM, 48 h, repeats, 0.1 µM): 94.73% and 89.5899%
Cell viability % (BT-20 cells; BT-20, 500 nM, 48 h, repeats, 0.5 µM): 90.47% and 107.0261%
Cell viability % (BT-20 cells; BT-20, 750 nM, 48 h, repeats, 0.75 µM): 86.64% and 81% and 102.8391%
Cell viability % (BT-20 cells; BT-20, 1 uM, 48 h, repeats, 1 µM): 92.1% and 100.302%
Cell viability % (BT-20 cells; BT-20, 2.5 uM, 48 h, repeats, 2.5 µM): 80.3% and 100.57% and 104.0262%
Cell viability % (BT-20 cells; BT-20, 5 uM, 48 h, repeats, 5 µM): 60.99% and 87.49% and 89.1%
Cell viability % (BT-20 cells; BT-20, 7.5 uM, 48 h, repeats, 7.5 µM): 52.633% and 55.7373%
Cell viability % (BT-20 cells; BT-20, 10 uM, 48 h, repeats, 10 µM): 52.47% and 37.54%
Cell viability % (BT-20 cells; BT-20, 15 uM, 48 h, repeats, 15 µM): 28.45% and 34.27%
Cell viability % (BT-20 cells; BT-20, 20 uM, 48 h, repeats, 20 µM): 18.3694% and 26.24%
viability at 0.1 µM (BT-20 cells; Homo sapiens, BT-20, 48 h, BT-20, 100 nM, repeats, read-out: Cell viability %): 86%
viability at 0.5 µM (BT-20 cells; Homo sapiens, BT-20, 48 h, BT-20, 500 nM, repeats, read-out: Cell viability %): 97.4%
viability at 1 µM (BT-20 cells; Homo sapiens, BT-20, 48 h, BT-20, 1 uM, repeats, read-out: Cell viability %): 99%
viability at 7.5 µM (BT-20 cells; Homo sapiens, BT-20, 48 h, BT-20, 7.5 uM, repeats, read-out: Cell viability %): 45.7%
viability at 10 µM (BT-20 cells; Homo sapiens, BT-20, 48 h, BT-20, 10 uM, repeats, read-out: Cell viability %): 41.3%
viability at 15 µM (BT-20 cells; Homo sapiens, BT-20, 48 h, BT-20, 15 uM, repeats, read-out: Cell viability %): 28.5%
viability at 20 µM (BT-20 cells; Homo sapiens, BT-20, 48 h, BT-20, 20 uM, repeats, read-out: Cell viability %): 20.9%
IC50 (BT-20 cells; Homo sapiens, BT-20, MTT, 48 h): 11.2 µM

— publication PMC9505425, “Targeting of the Mitochondrial TET1 Protein by Pyrrolo[3,2-b]pyrrole Chelators” (International Journal of Molecular Sciences, 2022)
